{"source": "patent US20080039321A1", "about": "“Plant Growth Regulation” (priority 2004, published 2008)", "test_system": "wheat (Triticum aestivum, variety \"TRISO\")", "test": "Root growth assay, seed treatment, wheat", "assay_type": "in vivo", "settings": "Root Growth of 100 is set as the standard, 16 (±2) days post treatment", "source_text": "Plant roots are a highly proliferative tissue that allows an easy accessible, cheap and short term screening method for plant growth regulators. The results obtained can easily be transferred to the overall effects on a plant of plant growth regulators identified by such a system. By using this root assay one is enabled to determine the effect of a seed treatment to root growth and/or germination and/or changes in habitat of germinated plants in order to identify the possible use as a yield enhancer. Two seeds of wheat (Triticum aestivum, variety “TRISO”) or 1 seed of maize (Zea mays, variety “LORENZO”) per hole in a plastic tray which contains an architecture of 8×13 holes were placed on compost soil covered with sand. These seeds were treated with 100 μl/hole, which creates an application volume of approx. 1200 l/ha, of a compound solution at active ingredient rates equivalent to 100, 10 and 1 g a.i./ha of each compound using an robotic application system (Lizzy Spray Robotics). Six replicates in a row of each compound and concentration were done. The outer rim of the above defined plastic tray was untreated to avoid false negative effects and the middle row (No. 7) was used as untreated control. The treated seeds were allowed to dry for approx. 4 hours and subsequently covered with sand and watered. The trays were stored in climate chambers with 14 hours lighting at a temperature of 24° C. (±2) at daytime and 16° C. (±2) at night and relative humidity (rH) of 60% and daily watered. Assessments were done 16 (±2) days post treatment by counting the germinated plants and assessing the phytotoxicity symptoms and percentage. In addition, the roots were washed out and the shoots were cut directly above the seed and the wet roots were placed on dry paper towels for approximately 30 minutes and weighted afterwards. This procedure provides a similar grade of moisture to the roots so that a comparison of the weights is possible. […]"}
{"smiles": "Nc1nc(OCC23CC4CC(CC(C4)C2)C3)c2nc[nH]c2n1", "note": "[Compound 1.1, O6-Adamantylmethyl-9H-purin-2-ylamine]", "values": [{"measurement": "Root Growth", "setting": "1 g a.i./ha", "value": 84}, {"measurement": "Root Growth", "setting": "10 g a.i./ha", "value": 76}, {"measurement": "Root Growth", "setting": "100 g a.i./ha", "value": 141}]}
